The source of these data is publication PMC11167021, “Discovery of a new class of cell-penetrating peptides by novel phage display platform” (Scientific Reports, 2024).

The subject of one data set is HEK cells. Kind of data set: Internalization of peptides on phage by confocal microscopy. It is filed as cell-based. The conditions noted are these: peptide displayed on phage, compared with ORD 5 phage pools. The text has this: Confocal microscopy was used to investigate the internalization and cytoplasmic localization of the selected peptides on phage. First, we used the phage pool. […] Some of these peptides had been identified from the selection against all three cell lines and some were cell-type selective. […] Representative images showing different internalization levels of NNJA peptides on phage were shown in Supplementary Fig. S6. Confirmation of internalization for select peptides was obtained using the same approach in Caco2 cells (Supplementary Figs. S7, S8).
Cells were fixed with 4% paraformaldehyde (PFA) on ice for 20 min after the washing steps. Fixed cells were washed with PBS for three times to remove any excess PFA, and followed by 1 h blocking in 3% bovine serum albumin (BSA) in Tris buffer saline (TBS) with 0.2% triton X-100, and antibodies staining in TBS with 0.2% triton X-100. Primary antibodies were incubated with cell samples overnight at 4 °C. Following PBS washes, species-specific Alexa Fluor 488, Alexa Fluor 568, and/or Alexa Fluor 647-coupled secondary antibodies were used for signal detection. Imaging data collection was conducted on an LSM800 (Zeiss) confocal microscope, using a 40× (NA 1.1 W LD C-Apochromat, Zeiss) objective. Controls treated with secondary antibody were shown negative or undetectable signal.

For another data set, the system named is HEK-239 cells. The data set is described as follows: Double-displayed phage carrying streptavidin-HRP, cellular uptake detected with TMB. The conditions noted are these: peptide displayed on phage PIII, streptavidin-HRP on pIX; n = 2. Format: cell-based. As to the method: (§1) We further evaluated the ability of NNJA peptides on phage to deliver functional groups into HEK-239 and CaCo2 cells by displaying an Avi-tag peptide on the minor coat protein pIX. Post biotinylation of Avi-tag by BirA, streptavidin-HRP was added to phage, forming a phage-protein complex (Avi[bio]/CPP-SA-HRP).
(§2) A randomly picked peptide ([…]) from the naïve library was incorporated in the setting and served as one of the negative controls. The method was described previously. Cell viability was evaluated in a replicated experimental group under the same assay condition using CellTiter-Glo luminescent cell viability assay from Promega.

A further data set has as its system Caco2 cells. Conditions: peptide displayed on phage PIII, streptavidin-HRP on pIX; n = 2. How it is done:
as §1, §2

Regarding GRKKRRQRRRPQ [Tat48–60, classic CPP], the “phage internalization in HEK cells, M13 antibody signal” value in the data set on HEK cells is on record as “lower signal intensity”. With “TVSRELTPL (phage displayed) [random peptide]”, the “cellular uptake of phage-protein complex (Avi[bio]/CPP-SA-HRP), TMB signal, HEK-239 cells” value with HEK-239 cells is given as “minimum signal”. The “cellular uptake of phage-protein complex (Avi[bio]/CPP-SA-HRP), TMB signal, CaCo2 cells” value with Caco2 cells is “minimum signal”.
